From ChEMBL document CHEMBL1146425, “Two new antiprotozoal 5-methylcoumarins from Vernonia brachycalyx” (J Nat Prod, 1997)

Assays:
[1] = Inhibition of phytohemagglutininin A-induced human lymphocyte proliferation assessed as radiolabeled thymidine uptake at < 300 uM; type: cell-based
Plasmodium falciparum [2] = assay: Antiplasmodial activity against chloroquine-resistant Plasmodium falciparum Dd2 by [G-3H]hypoxanthine uptake; type: functional, organism-based
Leishmania major = assay: Antileishmanial activity against Leishmania major promastigotes assessed as inhibition of [3H]thymidine incorporation after 18 hrs by scintillation counting; type: functional, organism-based
Plasmodium falciparum [3] = assay: Antiplasmodial activity against chloroquine-sensitive Plasmodium falciparum 3D7 by [G-3H]hypoxanthine uptake; type: functional, organism-based
[4] = Inhibition of phytohemagglutininin A-induced human lymphocyte proliferation assessed as radiolabeled thymidine uptake; type: cell-based

| SMILES | Activity [1] | IC50 (Plasmodium falciparum [2]) [µM] | IC50 (Leishmania major) [µM] | IC50 (Plasmodium falciparum [3]) [µM] | IC50 [4] [µM] |
| --- | --- | --- | --- | --- | --- |
| Cc1cccc2oc(=O)c3c(c12)O[C@@H](C)[C@@]3(C)CC(=O)[C@@H]1OC1(C)C | Not Active | 54 | 37 | 160 | 313 |
| Cc1cccc2oc(=O)c3c(c12)O[C@H](C)[C@@]3(C)CC(=O)[C@@H]1OC1(C)C [CYCLOISOBRACHYCOUMARINONE EPOXIDE] |  | 54 | 13.4 | 111 | 1810 |
